Here are results for 13 compounds from US20030083336A1, “Phenylpiperazinyl derivatives” (H. Lundbeck A/S, priority 1999, published 2003).

For assay [1], the target named is T1, human cloned dopamine D4.2 receptors (Homo sapiens, UniProt P21917, DEL265-296).
T1 construct: expressed in transfected cells; host or cells: CHO cells
T1 sequence (P21917 with tags, fused parts or gaps DEL265-296): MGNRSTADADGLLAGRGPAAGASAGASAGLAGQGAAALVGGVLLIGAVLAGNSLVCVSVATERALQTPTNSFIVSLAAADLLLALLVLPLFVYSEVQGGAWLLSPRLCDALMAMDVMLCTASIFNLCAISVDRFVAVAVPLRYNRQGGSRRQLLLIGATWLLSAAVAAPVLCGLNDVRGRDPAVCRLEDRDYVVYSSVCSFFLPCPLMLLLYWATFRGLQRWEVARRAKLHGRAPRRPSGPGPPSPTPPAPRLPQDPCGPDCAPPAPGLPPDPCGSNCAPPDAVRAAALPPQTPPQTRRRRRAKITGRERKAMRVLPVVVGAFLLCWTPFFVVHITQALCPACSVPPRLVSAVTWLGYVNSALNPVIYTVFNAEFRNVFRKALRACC
In words: Inhibition of the binding of 3H-YM-09151-2 to human dopamine D4 receptors. The note with it: [3H]YM-09151-2 0.06 nM; for IC50: membranes of CHO-cells, read-out: D4-bind. IC50; for inhibition at 0.05 µM: test compound at 50 nM, read-out: D4-bind. % inhibition of binding at 50 nM. As to the method: Inhibition of the Binding of ^3H-YM-09151-2 to Human Dopamine D4 Receptors
By this method the inhibition by drugs of the binding of [^3H]YM-09151-2 (0.06 nM) to membranes of human cloned dopamine D4.2 receptors expressed in CHO-cells is determined in vitro. Method modified from NEN Life Science Products, Inc., technical data certificate PC2533-10/96. The results are given in the following Table 1 as IC50-values or as percent inhibition of the binding of ^3H-YM-09151 -2 at the concentration of the test compound indicated.

Assay [2] has as its target T2, human cloned dopamine D3 receptors (Homo sapiens, UniProt P35462).
T2 construct: expressed in transfected cells; host or cells: CHO cells
The assay can be described thus: Inhibition of the binding of [3H]-Spiperone to human D3 receptors. The note with it: [3H]Spiperone 0.3 nM; for IC50: membranes of CHO-cells, read-out: D3-bind. IC50; for inhibition at 0.05 µM: test compound at 50 nM, read-out: D3-bind. % inhibition of binding at 50 nM. On the procedure:
Inhibition of the Binding of [^3H]-Spiperone to Human D3 Receptors
By this method the inhibition by drugs of the binding [^3H]Spiperone (0.3 nM) to membranes of human cloned dopamine D3 receptors expressed in CHO-cells is determined in vitro. Method modified from R. G. MacKenzie et al. Eur. J. Pharm.-Mol. Pharm. Sec. 1994, 266, 79-85. The results are given in the following Table 1 as IC50-values or as percent inhibition of the binding of ^3H-Spiperone at the concentration of the test compound indicated.

T2 sequence (P35462 whole entry): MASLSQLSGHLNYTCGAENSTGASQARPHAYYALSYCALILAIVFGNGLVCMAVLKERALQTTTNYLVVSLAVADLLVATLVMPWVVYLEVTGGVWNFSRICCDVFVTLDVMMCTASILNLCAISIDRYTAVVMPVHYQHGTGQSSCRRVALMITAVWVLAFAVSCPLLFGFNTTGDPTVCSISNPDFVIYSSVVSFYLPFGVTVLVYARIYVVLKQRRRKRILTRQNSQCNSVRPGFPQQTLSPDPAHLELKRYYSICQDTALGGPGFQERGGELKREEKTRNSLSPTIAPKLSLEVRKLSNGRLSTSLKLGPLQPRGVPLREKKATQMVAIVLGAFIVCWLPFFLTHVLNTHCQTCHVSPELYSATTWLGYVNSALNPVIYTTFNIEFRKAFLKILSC

Turning to `Cc1c(Oc2cccc(N(C)C)c2)cccc1N1CCN(CCCc2c[nH]c3ccccc23)CC1` [Compound 1a], the half-maximal inhibitory concentration (IC50) (in general, the midpoint of a concentration-inhibition curve) stood at 48 nM in assay [1] and 26 nM in assay [2].

Consider `Cc1c(N2CCOCC2)cccc1N1CCN(CCCc2c[nH]c3ccccc23)CC1` [Compound 1b, 1-[3-(1H-Indol-3-yl)propyl]-4-[2-methyl-3-(morpholin-4-yl)-phenyl]piperazine], for which the IC50 was found to be 5.9 nM in assay [1] and 220 nM in assay [2].

With `CCN(CC)c1cccc(Oc2cccc(N3CCN(CCCc4c[nH]c5ccc(F)cc45)CC3)c2C)c1` [Compound 2a], the IC50 in assay [1] was 5.4 nM; in assay [2], 10 nM.

As to `Cc1c(N2CCOCC2)cccc1N1CCCN(CCCc2c[nH]c3ccc(F)cc23)CC1` [Compound 2aa, 1-[3-(Morpholin-4-yl)-2-methylphenyl]-4-[3-(5-fluoro-1H-indol-3-yl)propyl]-1,4-diazepane], the inhibition (commonly the share of the control response that was lost under treatment) at 0.05 µM in assay [1] was 53%; in assay [2], 40%.

For the compound `CCN(CC)c1cccc(Oc2cccc(N3CCN(CCCCc4c[nH]c5ccc(Cl)cc45)CC3)c2C)c1` [Compound 2ab, 1-{3-[3-(Diethylamino)phenoxy]-2-methylphenyl}-4-[4-(5-chloro-1H-indol-3-yl)butyl]piperazine], the inhibition at 0.05 µM turned out to be 53% in assay [1] and 83% in assay [2].

In the case of `COc1cc(Oc2cccc(N3CCN(CCCc4c[nH]c5ccc(F)cc45)CC3)c2C)cc(OC)c1OC` [Compound 2b, 1-[2-Methyl-3-(3,4,5-trimethoxyphenoxy)phenyl]-4-[3-(5-fluoro-1H-indol-3-yl)propyl]piperazine], in assay [1], the inhibition at 0.05 µM was 98%. Moreover, the concentration for half-maximal inhibition (IC50) in assay [2] is 6.8 nM.

For the compound `CCN(CC)c1cccc(Oc2cccc(N3CCN(CCCc4c[nH]c5ccc(Cl)cc45)CC3)c2C)c1` [Compound 2c, 1-{3-[3-(Diethylamino)phenox]-2-methylphenyl}-4-[3-(5-chloro-1H-indol-3-yl)propyl]piperazine], the IC50 in assay [1] was 5.5 nM; in assay [2] it was 13 nM.

On to `CCN(CC)c1cccc(Oc2cccc(N3CCN(CCCc4c[nH]c5c(F)cc(F)cc45)CC3)c2C)c1` [Compound 2d, 1-{3-[3-(Diethylamino)phenoxy]-2-methylphenyl}-4-[3-(5,7-difluoro-1H-indol-3-yl)propyl]piperazine], for which the IC50 in assay [1] came to 12 nM. For the same compound, the inhibition at 0.05 µM in assay [2] amounted to 70%.

In the case of `COc1cc(Oc2cccc(N3CCN(CCCc4c[nH]c5ccc(Cl)cc45)CC3)c2C)cc(OC)c1OC` [Compound 2e, 1-[2-Methyl-3-(3,4,5-trimethoxyphenoxy)phenyl}-4-[3-(5-chloro-1H-indol-3-yl)propyl]piperazine], in assay [1], the 50% inhibitory concentration (IC50) is 10 nM. Further, in assay [2], the inhibition at 0.05 µM amounted to 71%.

With `CCN(CC)c1cccc(Oc2cccc(N3CCN(CCCc4c[nH]c5ccccc45)CC3)c2C)c1` [Compound 2f, 1-{3-[3-(Diethylamino)phenoxy]-2-methylphenyl}-4-[3-(1H-indol-3-yl)propyl]piperazine], the half-maximal inhibitory concentration (IC50) in assay [1] came to 35 nM. In addition, the inhibition at 0.05 µM in assay [2] is 70%.

With `Cc1c(N2CCCN(CCCc3c[nH]c4ccc(F)cc34)CC2)cccc1N1CC(C)OC(C)C1` (centres unmarked) [Compound 2g, 1-[3-(2,6-Dimethylmorpholin-4-yl)-2-methylphenyl]-4-[3-(5-fluoro-1H-indol-3-yl)propyl]-1,4-diazepan], the 50% inhibitory concentration (IC50) in assay [1] came to 26 nM. Further, in assay [2], the inhibition at 0.05 µM was found to be 65%.

`Cc1c(Oc2cccc(N(C)C)c2)cccc1N1CCN(CCCc2c[nH]c3ccc(F)cc23)CC1` [Compound 2h, 1-{3-[3-(Dimethylamino)phenoxy]-2-methylphenyl}-4-[3-(5-fluoro-1H-indol-3-yl)propyl]piperazine]: the half-maximal inhibitory concentration (IC50) in assay [1] worked out at 37 nM. Also, the inhibition at 0.05 µM in assay [2] stood at 77%.

With `Cc1c(Oc2ccc3c(c2)OCO3)cccc1N1CCN(CCCc2c[nH]c3ccccc23)CC1` [Compound 2i, 1-[3-(1,3-Benzodioxolan-5-yloxy)-2-methylphenyl]-4-[3-(1H-indol-3-yl)propyl]piperazine], in assay [1], the IC50 came to 35 nM. In addition, the inhibition at 0.05 µM in assay [2] turned out to be 54%.
